Experimental data from ChEMBL document CHEMBL3763039, “Development and Characterization of Potent Cyclic Acyldepsipeptide Analogues with Increased Antimicrobial Activity” (2016).
≈ marks a conversion by molar mass, not a printed value. Where a SMILES comes first, the peptide text is derived from it. Bridges are numbered along the chain shown (N, C = ends). [ ]: non-standard residue; d: D form. The star is where a group is joined. Phe(F5) = N[C@@H](Cc1c(F)c(F)c(F)c(F)c1F)C(=O)O; Phe(3,5-F2) = N[C@@H](Cc1cc(F)cc(F)c1)C(=O)O; Pip(4S-Me) = C[C@H]1CCN[C@H](C(=O)O)C1; 2Nal = N[C@@H](Cc1ccc2ccccc2c1)C(=O)O; Pro(4R-Me) = C[C@H]1CN[C@H](C(=O)O)C1; Tiq1c(1S) = O=C(O)[C@H]1NCCc2ccccc21; Bta = N[C@@H](Cc1csc2ccccc12)C(=O)O; Heptenoyl(2E) = CCCC/C=C/C(=O)*; Cha = N[C@@H](CC1CCCCC1)C(=O)O; aThr = C[C@H](O)[C@H](N)C(=O)O; Pip = O=C(O)[C@@H]1CCCCN1; Abu = CC[C@H](N)C(=O)O; Dap = NC[C@H](N)C(=O)O

Key:
Type in all cases: functional
Neisseria meningitidis = assay: Antibacterial activity against Neisseria meningitidis H44/76 incubated for 16 to 18 hrs by broth microdilution method
Neisseria gonorrhoeae = assay: Antibacterial activity against chloramphenicol-resistant Neisseria gonorrhoeae N.279 incubated for 16 to 18 hrs by broth microdilution method
Escherichia coli [1] = assay: Antibacterial activity against Escherichia coli MC4100 incubated for 16 to 18 hrs by broth microdilution method
Escherichia coli [2] = assay: Antibacterial activity against Escherichia coli MC4100 expressing lptD-4213 incubated for 16 to 18 hrs by broth microdilution method
Pseudomonas aeruginosa = assay: Antibacterial activity against Pseudomonas aeruginosa PAO1 incubated for 16 to 18 hrs by broth microdilution method
Staphylococcus aureus [3] = assay: Antibacterial activity against methicillin-resistant Staphylococcus aureus 1784A incubated for 16 to 18 hrs by broth microdilution method
Staphylococcus aureus [4] = assay: Antibacterial activity against Staphylococcus aureus subsp. aureus Newman clinical isolate incubated for 16 to 18 hrs by broth microdilution method
Staphylococcus aureus [5] = assay: Antibacterial activity against Staphylococcus aureus ATCC 29213 incubated for 16 to 18 hrs by broth microdilution method
Enterococcus faecalis = assay: Antibacterial activity against vancomycin-resistant Enterococcus faecalis V583 incubated for 16 to 18 hrs by broth microdilution method
Streptococcus pneumoniae = assay: Antibacterial activity against Streptococcus pneumoniae D39 incubated for 16 to 18 hrs by broth microdilution method
Bacillus subtilis = assay: Antibacterial activity against Bacillus subtilis PY79 incubated for 16 to 18 hrs by broth microdilution method
Listeria innocua = assay: Antibacterial activity against Listeria innocua incubated for 16 to 18 hrs by broth microdilution method

Row | Structure (SMILES) | MIC (Neisseria meningitidis) | MIC (Neisseria gonorrhoeae) | MIC (Escherichia coli [1]) | MIC (Escherichia coli [2]) | MIC (Pseudomonas aeruginosa) | MIC (Staphylococcus aureus [3]) | MIC (Staphylococcus aureus [4]) | MIC (Staphylococcus aureus [5]) | MIC (Enterococcus faecalis) | MIC (Streptococcus pneumoniae) | MIC (Bacillus subtilis) | MIC (Listeria innocua)
1 | C[C@@H]1C[C@H]2C(=O)O[C@@H](C)[C@H](NC(=O)[C@H](Cc3cc(F)cc(F)c3)NC(=O)/C=C/CCCCC(=O)O)C(=O)N3CCC[C@H]3C(=O)N3CCCC[C@H]3C(=O)N[C@@H](C)C(=O)N2C1 | 4 µg/mL (≈ 4.83 µM) | 1 µg/mL (≈ 1.21 µM) | > 128 µg/mL | > 128 µg/mL | > 128 µg/mL | 64 µg/mL (≈ 77.2 µM) | 64 µg/mL (≈ 77.2 µM) | 32 µg/mL (≈ 38.6 µM) | 8 µg/mL (≈ 9.65 µM) | 0.125 µg/mL (≈ 0.151 µM) | 16 µg/mL (≈ 19.3 µM) | 0.5 µg/mL (≈ 0.603 µM)
2 | C[C@@H]1C[C@H]2C(=O)O[C@@H](C)[C@H](NC(=O)[C@H](Cc3cc(F)cc(F)c3)NC(=O)/C=C/CC3CC3)C(=O)N3CCC[C@H]3C(=O)N3CCCC[C@H]3C(=O)N[C@@H](C)C(=O)N2C1 | 0.25 µg/mL (≈ 0.319 µM) | 0.125 µg/mL (≈ 0.16 µM) | > 128 µg/mL | > 128 µg/mL | > 128 µg/mL | 0.125 µg/mL (≈ 0.16 µM) | 0.0625 µg/mL (≈ 0.0798 µM) | 0.0078 µg/mL (≈ 0.00996 µM) | 0.0078 µg/mL (≈ 0.00996 µM) | ≤ 0.0625 µg/mL | ≤ 0.0625 µg/mL | ≤ 0.0625 µg/mL
3 | CCCC/C=C/C(=O)N[C@@H](Cc1cc(F)cc(F)c1)C(=O)N[C@@H]1C(=O)N2CCC[C@H]2C(=O)N2CCCC[C@H]2C(=O)N[C@@H](C)C(=O)N2CCC[C@H]2C(=O)O[C@H]1C | 0.25 µg/mL (≈ 0.324 µM) | 0.125 µg/mL (≈ 0.162 µM) | > 128 µg/mL | > 128 µg/mL | > 128 µg/mL | 0.125 µg/mL (≈ 0.162 µM) | 0.0625 µg/mL (≈ 0.0811 µM) | 0.0078 µg/mL (≈ 0.0101 µM) | 0.0078 µg/mL (≈ 0.0101 µM) | ≤ 0.0625 µg/mL | ≤ 0.0625 µg/mL | ≤ 0.0625 µg/mL
4 | CN[C@@H](CC(C)C)C(=O)N[C@H]1C(=O)N[C@@H](CC(N)=O)C(=O)N[C@H]2C(=O)N[C@H]3C(=O)N[C@H](C(=O)N[C@@H](C(=O)O)c4cc(O)cc(O)c4-c4cc3ccc4O)[C@H](O)c3ccc(c(Cl)c3)Oc3cc2cc(c3O[C@H]2O[C@@H](CO)[C@H](O)[C@@H](O)[C@@H]2O[C@@H]2C[C@@](C)(N)[C@@H](O)[C@@H](C)O2)Oc2ccc(cc2Cl)[C@H]1O |  |  |  |  |  | 1.3 µg/mL (≈ 0.897 µM) |  |  |  | 0.25 µg/mL (≈ 0.173 µM) | 0.16 µg/mL (≈ 0.11 µM) | 1 µg/mL (≈ 0.69 µM)
5 | CCCC/C=C/C(=O)N[C@@H](Cc1ccc2ccccc2c1)C(=O)N[C@H]1COC(=O)[C@@H]2C[C@@H](C)CN2C(=O)[C@H](CC)NC(=O)[C@@H]2CCCCN2C(=O)[C@@H]2CCCN2C1=O ({Heptenoyl(2E)}-[2Nal]SP[Pip][Abu][Pro(4R-Me)]; ester 2-C) | 32 µg/mL (≈ 40.1 µM) | > 128 µg/mL | > 128 µg/mL | > 128 µg/mL | > 128 µg/mL | > 128 µg/mL | > 128 µg/mL | > 128 µg/mL | 32 µg/mL (≈ 40.1 µM) | 2 µg/mL (≈ 2.5 µM) | 128 µg/mL (≈ 160 µM) | 0.5 µg/mL (≈ 0.626 µM)
6 | CCCC/C=C/C(=O)N[C@@H](Cc1csc2ccccc12)C(=O)N[C@H]1COC(=O)[C@@H]2C[C@@H](C)CN2C(=O)[C@H](CC)NC(=O)[C@@H]2CCCCN2C(=O)[C@@H]2CCCN2C1=O ({Heptenoyl(2E)}-[Bta]SP[Pip][Abu][Pro(4R-Me)]; ester 2-C) | 32 µg/mL (≈ 39.8 µM) | > 128 µg/mL | > 128 µg/mL | > 128 µg/mL | > 128 µg/mL | > 128 µg/mL | 8 µg/mL (≈ 9.94 µM) | 8 µg/mL (≈ 9.94 µM) | 8 µg/mL (≈ 9.94 µM) | 8 µg/mL (≈ 9.94 µM) | 8 µg/mL (≈ 9.94 µM) | 0.125 µg/mL (≈ 0.155 µM)
7 | CCCC/C=C/C(=O)N[C@@H](CC1CCCCC1)C(=O)N[C@H]1COC(=O)[C@@H]2C[C@@H](C)CN2C(=O)[C@H](CC)NC(=O)[C@@H]2CCCCN2C(=O)[C@@H]2CCCN2C1=O ({Heptenoyl(2E)}-[Cha]SP[Pip][Abu][Pro(4R-Me)]; ester 2-C) | 32 µg/mL (≈ 42.4 µM) | 32 µg/mL (≈ 42.4 µM) | > 128 µg/mL | > 128 µg/mL | > 128 µg/mL | 4 µg/mL (≈ 5.3 µM) | 1 µg/mL (≈ 1.32 µM) | 1 µg/mL (≈ 1.32 µM) | 1 µg/mL (≈ 1.32 µM) | 0.5 µg/mL (≈ 0.662 µM) | 2 µg/mL (≈ 2.65 µM) | ≤ 0.0625 µg/mL
8 | CCCC/C=C/C(=O)N[C@@H](Cc1cc(F)cc(F)c1)C(=O)N[C@H]1COC(=O)[C@@H]2C[C@@H](C)CN2C(=O)[C@H](CC)NC(=O)[C@@H]2CCCN2C(=O)[C@@H]2CCCN2C1=O ({Heptenoyl(2E)}-[Phe(3,5-F2)]SPP[Abu][Pro(4R-Me)]; ester 2-C) | 4 µg/mL (≈ 5.19 µM) | 4 µg/mL (≈ 5.19 µM) | > 128 µg/mL | > 128 µg/mL | > 128 µg/mL | 2 µg/mL (≈ 2.59 µM) | 2 µg/mL (≈ 2.59 µM) | 2 µg/mL (≈ 2.59 µM) | 0.25 µg/mL (≈ 0.324 µM) | 0.5 µg/mL (≈ 0.649 µM) | 0.125 µg/mL (≈ 0.162 µM) | ≤ 0.0625 µg/mL
9 | CCCC/C=C/C(=O)N[C@@H](Cc1cc(F)cc(F)c1)C(=O)N[C@H]1COC(=O)[C@@H]2C[C@@H](C)CN2C(=O)[C@H](C)NC(=O)[C@@H]2C[C@@H](C)CCN2C(=O)[C@@H]2CCCN2C1=O ({Heptenoyl(2E)}-[Phe(3,5-F2)]SP[Pip(4S-Me)]A[Pro(4R-Me)]; ester 2-C) | 0.125 µg/mL (≈ 0.159 µM) | 0.0625 µg/mL (≈ 0.0796 µM) | > 128 µg/mL | > 128 µg/mL | > 128 µg/mL | 4 µg/mL (≈ 5.1 µM) | 0.5 µg/mL (≈ 0.637 µM) | 0.0156 µg/mL (≈ 0.0199 µM) | 0.0156 µg/mL (≈ 0.0199 µM) | ≤ 0.0625 µg/mL | ≤ 0.0625 µg/mL | ≤ 0.0625 µg/mL
10 | CCCC/C=C/C(=O)N[C@@H](Cc1cc(F)cc(F)c1)C(=O)N[C@H]1COC(=O)[C@@H]2C[C@@H](C)CN2C(=O)[C@H](CC)NC(=O)[C@@H]2c3ccccc3CCN2C(=O)[C@@H]2CCCN2C1=O ({Heptenoyl(2E)}-[Phe(3,5-F2)]SP[Tiq1c(1S)][Abu][Pro(4R-Me)]; ester 2-C) | 8 µg/mL (≈ 9.6 µM) | 8 µg/mL (≈ 9.6 µM) | > 128 µg/mL | > 128 µg/mL | > 128 µg/mL | 4 µg/mL (≈ 4.8 µM) | 8 µg/mL (≈ 9.6 µM) | 4 µg/mL (≈ 4.8 µM) | 0.25 µg/mL (≈ 0.3 µM) | 0.5 µg/mL (≈ 0.6 µM) | 2 µg/mL (≈ 2.4 µM) | 0.125 µg/mL (≈ 0.15 µM)
11 | CCCC/C=C/C(=O)N[C@@H](Cc1cc(F)cc(F)c1)C(=O)N[C@H]1CNC(=O)[C@@H]2C[C@@H](C)CN2C(=O)[C@H](C)NC(=O)[C@@H]2CCCCN2C(=O)[C@@H]2CCCN2C1=O ({Heptenoyl(2E)}-[Phe(3,5-F2)][Dap]P[Pip]A[Pro(4R-Me)]; lactam 2-C) | 1 µg/mL (≈ 1.3 µM) | 1 µg/mL (≈ 1.3 µM) | > 128 µg/mL | > 128 µg/mL | > 128 µg/mL | 16 µg/mL (≈ 20.8 µM) | 16 µg/mL (≈ 20.8 µM) | 4 µg/mL (≈ 5.2 µM) | 0.5 µg/mL (≈ 0.649 µM) | 2 µg/mL (≈ 2.6 µM) | 4 µg/mL (≈ 5.2 µM) | ≤ 0.0625 µg/mL
12 | CCCC/C=C/C(=O)N[C@@H](Cc1cc(F)cc(F)c1)C(=O)N[C@@H]1C(=O)N2CCC[C@H]2C(=O)N2CC[C@H](C)C[C@H]2C(=O)N[C@@H](C)C(=O)N2CCC[C@H]2C(=O)O[C@H]1C ({Heptenoyl(2E)}-[Phe(3,5-F2)][aThr]P[Pip(4S-Me)]AP; ester 2-C) | 0.125 µg/mL (≈ 0.159 µM) | 0.125 µg/mL (≈ 0.159 µM) | > 128 µg/mL | > 128 µg/mL | > 128 µg/mL | 1 µg/mL (≈ 1.27 µM) | 0.5 µg/mL (≈ 0.637 µM) | 0.0078 µg/mL (≈ 0.00994 µM) | 0.0156 µg/mL (≈ 0.0199 µM) | ≤ 0.0625 µg/mL | ≤ 0.0625 µg/mL | ≤ 0.0625 µg/mL
13 | CCCC/C=C/C(=O)N[C@@H](Cc1c(F)c(F)c(F)c(F)c1F)C(=O)N[C@H]1COC(=O)[C@@H]2C[C@@H](C)CN2C(=O)[C@H](CC)NC(=O)[C@@H]2CCCCN2C(=O)[C@@H]2CCCN2C1=O ({Heptenoyl(2E)}-[Phe(F5)]SP[Pip][Abu][Pro(4R-Me)]; ester 2-C) | 32 µg/mL (≈ 38.1 µM) | 32 µg/mL (≈ 38.1 µM) | > 128 µg/mL | > 128 µg/mL | > 128 µg/mL | > 128 µg/mL | > 128 µg/mL | > 128 µg/mL | 16 µg/mL (≈ 19.1 µM) | > 128 µg/mL | 128 µg/mL (≈ 153 µM) | 4 µg/mL (≈ 4.77 µM)
